Measurements reported in PubChem BioAssay (NCI).
Several values for one entry are separate records, joined by “and”; a condition that tells them apart may be missing. Identical values can stand only once.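 Five compound concentrations were applied to cells in 96-well plates for 48 hours; endpoints were derived by simple linear interpolation of the resulting dose-response curve. GI50 is the concentration that inhibits growth by half. TGI is the concentration that stops growth completely.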

Tests used:
Experiment in all cases: DTP human tumour cell line panel, 48 h
HOP-62 NSCLC = test system: HOP-62 NSCLC
IGROV1 ovarian = test system: IGROV1 ovarian
SK-MEL-2 melanoma = test system: SK-MEL-2 melanoma
SK-MEL-28 melanoma = test system: SK-MEL-28 melanoma
SK-MEL-5 melanoma = test system: SK-MEL-5 melanoma
SR leukemia = test system: SR leukemia
SW-620 colon = test system: SW-620 colon
UACC-257 melanoma = test system: UACC-257 melanoma
UACC-62 melanoma = test system: UACC-62 melanoma
MDA-MB-435 = test system: MDA-MB-435

SMILES	GI50 (HOP-62 NSCLC) [µM]	TGI (HOP-62 NSCLC)	GI50 (IGROV1 ovarian) [µM]	TGI (IGROV1 ovarian)	GI50 (SK-MEL-2 melanoma) [µM]	TGI (SK-MEL-2 melanoma)	GI50 (SK-MEL-28 melanoma) [µM]	TGI (SK-MEL-28 melanoma) [µM]	GI50 (SK-MEL-5 melanoma) [µM]	TGI (SK-MEL-5 melanoma)	GI50 (SR leukemia) [µM]	TGI (SR leukemia) [µM]	GI50 (SW-620 colon) [µM]	TGI (SW-620 colon)	GI50 (UACC-257 melanoma) [µM]	TGI (UACC-257 melanoma)	GI50 (UACC-62 melanoma) [µM]	TGI (UACC-62 melanoma)	GI50 (MDA-MB-435)	TGI (MDA-MB-435)
COc1ccc2c(c1)[nH]c(=O)c1c3cccnc3cn21	0.0666	37 µM	0.0627	14.6 µM	0.037	11.3 µM	0.054	> 100	0.025	0.0992 µM	0.0271	5.75	0.0327	13.2 µM	0.677	25.5 µM	0.0431	19.3 µM		
CCCOc1ccc(/C=C/c2cc(OC)c(OC)c(OC)c2)cc1	0.32	> 100 µM		> 100 µM		> 100 µM		> 100		0.467 µM		31.2		> 100 µM		39.3 µM		> 100 µM		
CCCCCCC(C)CC(CCCCCC)NCCOC(=O)c1ccc([N+](=O)[O-])cc1 (stereo not drawn)		33.7 µM and 30.7 µM		27 µM and 25.1 µM		30.7 µM and 28.6 µM		27		28.4 µM and 23.4 µM				28.8 µM and 28.5 µM		21.4 µM and 16.8 µM		28.7 µM and 26.6 µM	11.6 µM and 5.17 µM	24.9 µM and 20.1 µM
COc1ccc(-c2ccc(/C=N/n3cn[nH]c3=S)o2)c([N+](=O)[O-])c1	62.2	> 100 µM	39.6	> 100 µM			48.6	> 100					29.8	> 100 µM			41.1	> 100 µM	19.8 µM	44.8 µM
CC1(C)CCSC(/C=C/c2ccccc2)=N1		32.8 µM		37.8 µM		28.8 µM		43		28.8 µM				38.6 µM		27 µM				32.6 µM
O=C(CC(=O)Nc1ccc(Cl)cc1)NNCC(=O)Nc1nc(-c2ccccc2)cs1		> 100 µM		> 100 µM				> 100		> 100 µM				> 100 µM				> 100 µM		
CC1CCC2(OC1)OC1CC3C4CC=C5CC(OC6OC(CO)C(OC7OC(C)C(OC8OC(C)C(O)C(O)C8O)C(O)C7O)C(O)C6OC6OC(C)C(O)C(O)C6O)CCC5(C)C4CCC3(C)C1C2C (stereo not drawn)		> 100 µM		2.59 µM		2.5 µM		1.85		3.06 µM				2.89 µM		2.02 µM		1.51 µM		1.18 µM
O=C(CNC(=O)c1cccc2ccccc12)Nc1ccccc1Oc1cccc(O)c1	8.22	> 25 µM	9.96	> 25 µM			> 25	> 25	1.86	> 25 µM	1.05	> 25	3.12	> 25 µM	> 25	> 25 µM	1.62	> 25 µM	0.755 µM	3.07 µM
CCNC(=O)C(O)C1(O)CCC2[C@@H]3CCC4=CC(=O)C=C[C@]4(C)C3[C@@H](O)C[C@@]21C (stereo partly drawn)		> 100 µM		> 100 µM		> 100 µM		> 100				> 100		> 100 µM		> 100 µM		> 100 µM		
COc1ccc2[nH]c3c(cnn4cnnc34)c2c1		> 100 µM		> 100 µM		> 100 µM		> 100		> 100 µM				> 100 µM		> 100 µM		> 100 µM		
Cc1ccc2sc3cc(=O)cc(C)c-3nc2c1		> 100 µM		> 100 µM		> 100 µM		> 100		38.4 µM		> 100		> 100 µM		> 100 µM		36 µM		
O=C1CCC(c2nc3ccccc3o2)C(=O)N1 (stereo not drawn)		> 100 µM		> 100 µM		> 100 µM		> 100		> 100 µM		> 100		> 100 µM		> 100 µM		> 100 µM		
Clc1nc(Cl)c2ncn(C/C=C\Cn3cnc4c(Cl)nc(Cl)nc43)c2n1	1.74	4.71 µM	1.17	2.94 µM	1.75	3.66 µM	1.94	3.68	2.92	10.5 µM			1.41	2.99 µM	2.56	12.1 µM	2.04	4.19 µM	1.88 µM	3.77 µM
COc1ccc(Cl)cc1N1C(=O)C(Cl)=C(Nc2cccc(O)c2)C1=O	23.7	74.8 µM					24.4	83.8	23	39.8 µM	13.8	54.5	27.4	63 µM			12.3	27.9 µM	24.6 µM	62.8 µM
COC(=O)c1nc(-c2ccc(Cl)c(Cl)c2)nc2ccccc12		62.8 µM		> 100 µM		> 100 µM		> 100		> 100 µM				> 100 µM		> 100 µM		> 100 µM		
Cc1cc2c(cn1)C(=O)OCC2		> 100 µM		> 100 µM				> 100				> 100		> 100 µM		> 100 µM		> 100 µM		
COc1ccc(/C=C/C(=O)c2ccc(Nc3ncnc4ccccc34)cc2)cc1OC	9.87	66.5 µM	20.7	> 100 µM	13.9	44.8 µM	13.7	93.5			2.04	6.36	3.51	> 100 µM	20.3	> 100 µM	10.7	27.9 µM	2.93 µM	> 100 µM
COC(=O)Nc1ccc2ccc3c(NC(=O)OC)ccc4ccc1c2c43 (tested in a mixture with another compound)	7.91	25.4 µM	7.98	> 50 µM	25.6	> 50 µM	35.2	> 50	4.42	> 50 µM	2.51	> 50	3.9	> 50 µM	21.8	> 50 µM	5.83	> 50 µM		
